Assay results taken from EPA's ToxRefDB 2.

Assays:
rat [1] = settings: Subchronic oral toxicity in rodents, fischer, Feed, dose end: 90 day
mouse [2] = settings: Carcinogenicity, cd1, Oral, Feed, dose end: 78 week, group: systemic
rat [3] = settings: Fertility (Segment I), sprague dawley, Injection, Intraperitoneal, dose end: 7 GD
rat [4] = settings: Sub-acute repeat dose toxicity, sprague dawley, Injection, Intraperitoneal, dose end: 30 day, group: systemic
mouse [5] = settings: Subchronic oral toxicity in rodents, b6c3f1, Feed, dose end: 13 week, group: systemic
rat [6] = settings: Subchronic oral toxicity in rodents, fischer, Feed, dose end: 13 week, group: systemic
mouse [7] = settings: Carcinogenicity; b6c3f1; Oral; Feed; dose end: 2 year; group: systemic; systemic / in life observation / body weight / body weight
rat [8] = settings: Carcinogenicity; fischer; Oral; Feed; dose end: 2 year; group: systemic; systemic / pathology microscopic / skin / keratoacanthoma
primate = settings: Subchronic oral toxicity in nonrodent, macaque, Gavage/Intubation, dose end: 28 day, group: systemic, systemic / clinical chemistry / [other] / [other] + systemic / in life observation / clinical signs / emesis + systemic / in life …
rat [9] = settings: Sub-acute repeat dose toxicity, sprague dawley, Oral, Gavage/Intubation, dose end: 28 day, group: systemic
rat [10] = settings: Chronic toxicity, sprague dawley, Oral, Gavage/Intubation, dose end: 26 week, group: systemic
rat [11] = settings: Subchronic oral toxicity in rodents, other, Feed, dose end: 15 week, group: cholinesterase
dog [12] = settings: Subchronic oral toxicity in nonrodent, beagle, Feed, dose end: 13 week
rat [13] = settings: Prenatal developmental toxicity study, sprague dawley, Oral, Gavage/Intubation, dose end: 15 GD
rat [14] = settings: Combined chronic toxicity/carcinogenicity, sprague dawley, Oral, Feed, dose end: 104 week, group: systemic
rat [15] = settings: Subchronic oral toxicity in rodents, sprague dawley, Feed, dose end: 90 day, group: systemic, systemic / in life observation / body weight / body weight + systemic / in life observation / body weight / body weight gain + systemic / in…
rat [16] = settings: Multigenerational reproductive toxicity study, sprague dawley, Oral, Feed, dose end: 2 generation
dog [17] = settings: Chronic toxicity; beagle; Oral; Feed; dose end: 52 week; group: systemic; systemic / pathology microscopic / liver / degeneration + systemic / pathology microscopic / liver / hyperplasia + systemic / pathology …
rat [18] = settings: Subchronic oral toxicity in rodents, fischer, Feed, dose end: 13 week, group: systemic, systemic / hematology / erythrocyte (rbc) count differential / erythrocyte (rbc) + systemic / hematology / hematocrit (hct) / hematocrit (…
dog [19] = settings: Sub-acute repeat dose toxicity, beagle, Injection, Intravenous, dose end: 1 month, group: systemic
[20] = group: cholinesterase, cholinesterase / cholinesterase / cholinesterase / brain cholinesterase (che)
[21] = group: cholinesterase, cholinesterase / cholinesterase / cholinesterase / brain cholinesterase (che) + cholinesterase / cholinesterase / cholinesterase / …
[22] = group: systemic, systemic / hematology / erythrocyte (rbc) count differential / erythrocyte (rbc) + systemic / hematology / hematocrit (hct) / hematocrit (…
[23] = group: systemic, systemic / hematology / mean corpuscular hemoglobin concentration (mchc) / mean corpuscular hemoglobin concentration (mchc)
[24] = systemic / in life observation / body weight / body weight gain + systemic / in life observation / food consumption / food efficiency + …
[25] = group: maternal, reproductive / reproductive performance / implantations / implantations + reproductive / reproductive performance / preimplantation loss / …
[26] = group: parental, systemic / in life observation / body weight / body weight gain + systemic / organ weight / ovary / absolute + systemic / organ weight / …
[27] = systemic / clinical chemistry / creatinine / creatinine + systemic / in life observation / food consumption / food consumption + systemic / …
[28] = systemic / pathology microscopic / ovary / follicle count + systemic / in life observation / body weight / body weight
[29] = systemic / in life observation / body weight / body weight
[30] = systemic / in life observation / body weight / body weight + systemic / in life observation / mortality / mortality + systemic / pathology …
[31] = systemic / in life observation / body weight / body weight + systemic / in life observation / food consumption / food consumption + systemic…
[32] = systemic / clinical chemistry / alanine aminotransferase (alt/sgpt) / alanine aminotransferase (alt/sgpt) + systemic / clinical chemistry / …
[33] = systemic / hematology / platelet / platelet + systemic / in life observation / clinical signs / salivation
[34] = systemic / clinical chemistry / alanine aminotransferase (alt/sgpt) / alanine aminotransferase (alt/sgpt) + systemic / in life observation…
[35] = cholinesterase / cholinesterase / cholinesterase / erythrocyte cholinesterase (che)
[36] = cholinesterase / cholinesterase / cholinesterase / erythrocyte cholinesterase (che) + cholinesterase / cholinesterase / cholinesterase / …
[37] = group: cholinesterase, cholinesterase / cholinesterase / cholinesterase / erythrocyte cholinesterase (che) + cholinesterase / cholinesterase / cholinesterase / …
[38] = group: systemic, systemic / in life observation / clinical signs / [other]
[39] = group: developmental, developmental / developmental malformation / bone / unossified
[40] = group: maternal, systemic / in life observation / clinical signs / drooping eyelids (ptosis) + systemic / in life observation / clinical signs / salivation…
[41] = systemic / in life observation / body weight / body weight + systemic / in life observation / body weight / body weight gain
[42] = systemic / in life observation / body weight / body weight + systemic / in life observation / body weight / body weight gain + systemic / …
[43] = group: offspring, systemic / in life observation / body weight / offspring (pup) weight + systemic / in life observation / body weight / offspring (pup) …
[44] = group: parental, systemic / in life observation / body weight / body weight + systemic / in life observation / body weight / body weight gain
[45] = systemic / clinical chemistry / [other] / [other] + systemic / hematology / erythrocyte (rbc) count differential / erythrocyte (rbc) + …
[46] = systemic / urinalysis / potassium / potassium + systemic / urinalysis / sodium / sodium

COC(=O)Nc1cccc(OC(=O)Nc2cccc(C)c2)c1 [Phenmedipham]
LEL (rat [1]; [20]): 3.5 mg/kg/day | NEL (rat [1]; [20]): < 3.5 mg/kg/day | LOAEL (rat [1]; [21]): > 366 mg/kg/day | NOAEL (rat [1]; [21]): ≥ 366 mg/kg/day | LOAEL (rat [1]; [22]): 35.4 mg/kg/day | NOAEL (rat [1]; [22]): 3.5 mg/kg/day | LEL (rat [1]; [23]): 3.5 mg/kg/day | NEL (rat [1]; [23]): < 3.5 mg/kg/day | LOAEL (mouse [2]; systemic / in life observation / body weight / body weight gain + systemic / in life observation / food consumption / food efficiency): 1070 mg/kg/day | NEL (mouse [2]; [24]): 75 mg/kg/day | NOAEL (mouse [2]; [24]): 302 mg/kg/day | LEL (mouse [2]; systemic / pathology gross / spleen / enlarged + systemic / pathology microscopic / adrenal gland / amyloid deposition + systemic / …): 302 mg/kg/day

C1CC2OC2CC1C1CO1 (stereo not given) [4-Vinyl-1-cyclohexene dioxide]
LEL (rat [3]; [25]): 80 mg/kg/day | LOAEL (rat [3]; [25]): > 80 mg/kg/day | NEL (rat [3]; [25]): 20 mg/kg/day | NOAEL (rat [3]; [25]): ≥ 80 mg/kg/day | LEL (rat [3]; [26]): 80 mg/kg/day | LOAEL (rat [3]; [26]): > 80 mg/kg/day | NEL (rat [3]; [26]): 20 mg/kg/day | NOAEL (rat [3]; [26]): ≥ 80 mg/kg/day | LOAEL (rat [4]; [27]): > 80 mg/kg/day | NOAEL (rat [4]; [27]): ≥ 80 mg/kg/day | LEL (rat [4]; [28]): 40 mg/kg/day | NEL (rat [4]; [28]): < 40 mg/kg/day

CCNc1cc2oc3cc(=[NH+]CC)c(C)cc-3c(-c3ccccc3C(=O)OCC)c2cc1C.[Cl-] [Rhodamine 6G]
LEL (mouse [5]; [29]): 300 mg/kg/day | NEL (mouse [5]; [29]): 150 mg/kg/day | LOAEL (mouse [5]; [30]): > 1200 mg/kg/day | NOAEL (mouse [5]; [30]): ≥ 1200 mg/kg/day | LOAEL (rat [6]; [31]): > 100 mg/kg/day | NEL (rat [6]; [31]): 12.5 mg/kg/day | NOAEL (rat [6]; [31]): ≥ 100 mg/kg/day | LEL (rat [6]; systemic / in life observation / body weight / body weight + systemic / pathology microscopic / bone marrow / atrophy): 25 mg/kg/day | LEL (mouse [7]): 125 mg/kg/day | LOAEL (mouse [7]): 125 mg/kg/day | NEL (mouse [7]): < 125 mg/kg/day | NOAEL (mouse [7]): < 125 mg/kg/day | LEL (rat [8]): 10 mg/kg/day | LOAEL (rat [8]): > 10 mg/kg/day | NEL (rat [8]): 5 mg/kg/day | NOAEL (rat [8]): ≥ 10 mg/kg/day

CCCCN1C(=O)[C@@H]([C@H](O)C2CCCCC2)NC(=O)C12CCN(Cc1ccc(Oc3ccc(C(=O)O)cc3)cc1)CC2.Cl [Aplaviroc hydrochloride]
LEL (primate): 30 mg/kg/day | LOAEL (primate): > 1000 mg/kg/day | NEL (primate): < 30 mg/kg/day | NOAEL (primate): ≥ 1000 mg/kg/day | LOAEL (rat [9]; [32]): > 1000 mg/kg/day | NOAEL (rat [9]; [32]): ≥ 1000 mg/kg/day | LEL (rat [9]; [33]): 30 mg/kg/day | NEL (rat [9]; [33]): < 30 mg/kg/day | LOAEL (rat [10]; [32]): > 750 mg/kg/day | NOAEL (rat [10]; [32]): ≥ 750 mg/kg/day | LEL (rat [10]; [34]): 100 mg/kg/day | NEL (rat [10]; [34]): < 100 mg/kg/day

COP(=S)(OC)Oc1ccc(Sc2ccc(OP(=S)(OC)OC)cc2)cc1 [Temephos]
LEL (rat [11]; [35]): 0.9 mg/kg/day | LOAEL (rat [11]; [35]): 0.9 mg/kg/day | NEL (rat [11]; [36]): 0.3 mg/kg/day | NOAEL (rat [11]; [36]): 0.3 mg/kg/day | LEL (dog [12]; [37]): 12.5 mg/kg/day | LOAEL (dog [12]; [37]): 12.5 mg/kg/day | NEL (dog [12]; [37]): 0.46 mg/kg/day | NOAEL (dog [12]; [37]): 0.46 mg/kg/day | LEL (dog [12]; [38]): 12.5 mg/kg/day | LOAEL (dog [12]; [38]): 12.5 mg/kg/day | NEL (dog [12]; [38]): 0.46 mg/kg/day | NOAEL (dog [12]; [38]): 0.46 mg/kg/day

CCNc1nc(NC(C)C)nc(SC)n1 [Ametryn]
LEL (rat [13]; [39]): 50 mg/kg/day | LOAEL (rat [13]; [39]): > 250 mg/kg/day | NEL (rat [13]; [39]): 5 mg/kg/day | NOAEL (rat [13]; [39]): ≥ 250 mg/kg/day | LOAEL (rat [13]; group: maternal, systemic / in life observation / clinical signs / drooping eyelids (ptosis) + systemic / in life observation / clinical signs / salivation): 50 mg/kg/day | LEL (rat [13]; [40]): 50 mg/kg/day | NEL (rat [13]; [40]): 5 mg/kg/day | NOAEL (rat [13]; [40]): 5 mg/kg/day | LEL (rat [14]; [41]): 20.9 mg/kg/day | LOAEL (rat [14]; [41]): 20.9 mg/kg/day | NEL (rat [14]; [42]): 2 mg/kg/day | NOAEL (rat [14]; [42]): 2 mg/kg/day | LEL (rat [15]): 36.1 mg/kg/day | LOAEL (rat [15]): 36.1 mg/kg/day | NEL (rat [15]): 7.4 mg/kg/day | NOAEL (rat [15]): 7.4 mg/kg/day | LEL (rat [16]; [43]): 131 mg/kg/day | LOAEL (rat [16]; [43]): 131 mg/kg/day | NEL (rat [16]; [43]): 13 mg/kg/day | NOAEL (rat [16]; [43]): 13 mg/kg/day | LEL (rat [16]; [44]): 131 mg/kg/day | LOAEL (rat [16]; [44]): 131 mg/kg/day | NEL (rat [16]; [44]): 13 mg/kg/day | NOAEL (rat [16]; [44]): 13 mg/kg/day | LEL (dog [17]): 70 mg/kg/day | LOAEL (dog [17]): 70 mg/kg/day | NEL (dog [17]): 7.2 mg/kg/day | NOAEL (dog [17]): 7.2 mg/kg/day

O=C(O)c1cc(O)c(O)c(O)c1 [Gallic acid]
LEL (rat [18]): 300 mg/kg/day | LOAEL (rat [18]): 300 mg/kg/day | NEL (rat [18]): 100 mg/kg/day | NOAEL (rat [18]): 100 mg/kg/day

CN(C)c1ccc(O)c2c1C[C@H]1C[C@H]3[C@H](N(C)C)C(=O)C(C(N)=O)=C(O)[C@@]3(O)C(=O)C1=C2O [Minocycline]
LOAEL (dog [19]; [45]): > 40 mg/kg/day | NOAEL (dog [19]; [45]): ≥ 40 mg/kg/day | LEL (dog [19]; [46]): 5 mg/kg/day | NEL (dog [19]; [46]): < 5 mg/kg/day
